Measurements: ChEMBL document CHEMBL4765389, “Antimicrobial and anti-inflammatory activities of short dodecapeptides derived from duck cathelicidin: Plausible mechanism of bactericidal action and endotoxin neutralization” (Eur J Med Chem, 2020)
Activity calls are given as the source filed them. No cut-off for these calls is given here.

What was measured:
[1] = Retention time of the compound by RP-HPLC method; type: physicochemical
[2] = test system: Staphylococcus aureus; test: Antibacterial activity against Staphylococcus aureus KCTC 1621 assessed as reduction in bacterial growth incubated for 24 hrs by CLSI based broth dilution method; type: functional; conditions: read-out: MIC100
[3] = test system: Erythrocyte; test: Hemolytic activity in sheep RBC assessed as reduction in hemoglobin at 256 uM incubated for 1 hr; type: ADME, cell-based, Ovis aries
[4] = test system: Escherichia coli; test: Bactericidal activity against Escherichia coli KCTC 1682 assessed as reduction in colony forming unit at MIC measured at 3 hrs by time kill assay; type: functional
[5] = Therapeutic index, ratio of HC10 for sheep RBC to geometric mean MIC for gram positive bacteria; type: toxicity; conditions: sheep red blood cells, read-out: TI
[6] = Drug uptake in Escherichia coli KCTC 1682 assessed as cytoplasmic accumulation at 2 times MIC incubated for 30 mins by confocal laser scanning microscopy; type: ADME; conditions: 0.5 h
[7] = test system: Lipopolysaccharide (LPS); test: Displacement of BODIPY-TR cadaverine from Escherichia coli O111:B4 LPS at 10 uM measured for 100 sec by spectrofluorometry relative to control
[8] = test system: Staphylococcus aureus; test: Antibacterial activity against methicillin-resistant Staphylococcus aureus CCARM 3090 assessed as reduction in bacterial growth incubated for 24 hrs in presence of chloramphenicol by CLSI based broth dilution method; type: functional; conditions: read-out: MIC100
[9] = Cytotoxicity against mouse NIH/3T3 cells assessed as reduction in cell viability at 20 uM incubated for 24 hrs by MTT assay; type: cell-based, NIH3T3; conditions: NIH/3T3 cells, read-out: INH
[10] = test system: Escherichia coli; test: Antibacterial activity against Escherichia coli KCTC 1682 assessed as reduction in bacterial growth incubated for 24 hrs in presence of 4 uM FeCl3 by CLSI based broth dilution method; type: functional; conditions: read-out: MIC100
[11] = Antibacterial activity against multidrug-resistant Pseudomonas aeruginosa CCARM 2095 assessed as reduction in bacterial growth incubated for 24 hrs by CLSI based broth dilution method; type: functional; conditions: read-out: MIC100
[12] = test system: Candida albicans; test: Antifungal activity against Candida albicans KCTC 7965 assessed as reduction in fungal growth incubated for 24 hrs by CLSI based broth dilution method; type: functional; conditions: read-out: MIC100
[13] = test system: Staphylococcus aureus; test: Antibacterial activity against methicillin-resistant Staphylococcus aureus CCARM 3090 assessed as reduction in bacterial growth incubated for 24 hrs in presence of ciprofloxacin by CLSI based broth dilution method; type: functional; conditions: read-out: MIC100
[14] = Antibacterial activity against multidrug-resistant Pseudomonas aeruginosa CCARM 2095 assessed as reduction in bacterial growth incubated for 24 hrs in presence of ciprofloxacin by CLSI based broth dilution method; type: functional; conditions: read-out: MIC100
[15] = Antibacterial activity against multidrug-resistant Pseudomonas aeruginosa CCARM 2095 assessed as fractional inhibitory concentration index incubated for 24 hrs in presence of chloramphenicol by CLSI based broth dilution method; type: functional
[16] = test system: RAW264.7; test: Antiinflammatory activity against mouse RAW264.7 cells assessed as reduction in LPS-induced TNFalpha mRNA expression at 10 uM incubated for 3 hrs by qRT-PCR analysis; type: functional, cell-based
[17] = test system: Cell membrane; test: Induction of cell membrane permeability in Staphylococcus aureus KCTC 1621 assessed as cytoplasmic membrane depolarization at 16 uM by SYTOX dye based fluorescence assay; type: subcellular
[18] = test system: Bacteria; test: Antibacterial activity against Gram positive bacteria assessed as reduction in bacterial growth incubated for 24 hrs by CLSI based broth dilution method; type: functional; conditions: read-out: MIC100
[19] = test system: Staphylococcus aureus; test: Antibacterial activity against Staphylococcus aureus KCTC 1621 assessed as reduction in bacterial growth incubated for 24 hrs in presence of 20 % serum by CLSI based broth dilution method; type: functional; conditions: read-out: MIC100
[20] = test system: Escherichia coli; test: Antibacterial activity against Escherichia coli KCTC 1682 assessed as reduction in bacterial growth incubated for 24 hrs in presence of 2.5 mM CaCl2 by CLSI based broth dilution method; type: functional; conditions: read-out: MIC100
[21] = test system: RAW264.7; test: Antiinflammatory activity against mouse RAW264.7 cells assessed as reduction in LPS-induced iNOS mRNA expression at 5 uM incubated for 6 hrs by qRT-PCR analysis; type: functional, cell-based
[22] = Antibacterial activity against multidrug-resistant Pseudomonas aeruginosa CCARM 2095 assessed as fractional inhibitory concentration incubated for 24 hrs in presence of chloramphenicol by CLSI based broth dilution method; type: functional
[23] = test system: RAW264.7; test: Antiinflammatory activity in mouse RAW264.7 cells assessed as neutralization of LPS binding by measuring LPS-FITC aggregation at 10 uM pretreated with LPS for 1 hr followed by compound addition and measured after 1 hr by flowcytometry analysis (reference value: 48.12 %); type: functional
[24] = test system: RAW264.7; test: Antiinflammatory activity against mouse RAW264.7 cells assessed as reduction in LPS-induced TNFalpha level at 10 uM incubated for 24 hrs by […] relative to control; type: functional
[25] = Cytotoxicity against mouse RAW264.7 cells assessed as reduction in cell viability at 20 uM incubated for 24 hrs by MTT assay; type: cell-based; conditions: read-out: INH
[26] = test system: Escherichia coli; test: Antibacterial activity against Escherichia coli KCTC 1682 assessed as reduction in bacterial growth incubated for 24 hrs in presence of 20 % serum by CLSI based broth dilution method; type: functional; conditions: read-out: MIC100
[27] = test system: Escherichia coli; test: Antibacterial activity against Escherichia coli KCTC 1682 assessed as reduction in bacterial growth incubated for 24 hrs in presence of 1 mM MgCl2 by CLSI based broth dilution method; type: functional; conditions: read-out: MIC100
[28] = test system: Staphylococcus aureus; test: Antibacterial activity against methicillin-resistant Staphylococcus aureus CCARM 3090 assessed as reduction in bacterial growth incubated for 24 hrs in presence of oxacillin by CLSI based broth dilution method; type: functional; conditions: read-out: MIC100
[29] = Antibacterial activity against multidrug-resistant Pseudomonas aeruginosa CCARM 2095 assessed as reduction in bacterial growth incubated for 24 hrs in presence of chloramphenicol by CLSI based broth dilution method; type: functional; conditions: read-out: MIC100
[30] = test system: Cell membrane; test: Induction of cell membrane permeability in Staphylococcus aureus KCTC 1621 assessed as cytoplasmic membrane depolarization at 16 uM by DiSC3-5 dye based spectrofluorometry; type: subcellular
[31] = test system: Salmonella typhimurium; test: Antibacterial activity against Salmonella typhimurium KCTC 1926 assessed as reduction in bacterial growth incubated for 24 hrs by CLSI based broth dilution method; type: functional, Salmonella enterica subsp. enterica serovar Typhimurium; conditions: Salmonella enterica, read-out: MIC100
[32] = Therapeutic index, ratio of HC10 for sheep RBC to geometric mean MIC for yeast; type: toxicity; conditions: sheep red blood cells, read-out: TI
[33] = test system: Saccharomyces cerevisiae; test: Antifungal activity against yeast assessed as reduction in fungal growth incubated for 24 hrs by CLSI based broth dilution method; type: functional; conditions: read-out: MIC100
[34] = test system: Escherichia coli; test: Antibacterial activity against Escherichia coli KCTC 1682 assessed as reduction in bacterial growth incubated for 24 hrs in presence of 6 uM NH4Cl by CLSI based broth dilution method; type: functional; conditions: read-out: MIC100
[35] = test system: RAW264.7; test: Antiinflammatory activity against mouse RAW264.7 cells assessed as reduction in LPS-induced nitrite level at 5 uM incubated for 24 hrs by Griess reagent based assay relative to control; type: functional
[36] = test system: Staphylococcus aureus; test: Antibacterial activity against methicillin-resistant Staphylococcus aureus CCARM 3095 assessed as reduction in bacterial growth incubated for 24 hrs by CLSI based broth dilution method; type: functional; conditions: read-out: MIC100
[37] = test system: Pseudomonas aeruginosa; test: Antibacterial activity against Pseudomonas aeruginosa KCTC 1637 assessed as reduction in bacterial growth incubated for 24 hrs by CLSI based broth dilution method; type: functional; conditions: read-out: MIC100
[38] = test system: Lipopolysaccharide (LPS); test: Displacement of BODIPY-TR cadaverine from Escherichia coli O111:B4 LPS at 20 uM measured for 100 sec by spectrofluorometry relative to control

Substance: H-LWKKIYRKWKRW-NH2
- Retention_time [1]: 17.3 min
- MIC [2]: 2 µM
- Activity [3]: Non-Toxic
- Activity [4]: <2 log10CFU/ml
- selectivity ratio [5]: 753
- Drug uptake [6]: Active
- Activity [7]: 75%
- MIC [8]: 32 µM
- cytotoxicity at 24 h, 20 µM [9]: < 10%
- MIC [10]: 8 µM
- MIC [11]: 8 µM
- MIC [12]: 8 µM
- MIC [13]: 64 µM
- MIC [14]: 64 µM
- fractional inhibitory concentration index (FICI) [15]: 0.375
- inhibition [16]: Active
- Activity [17]: inactive
- MIC [18]: 6.8 µM
- MIC [19]: 4 µM
- MIC [20]: 4 µM
- inhibition [21]: Active
- FIC [22]: 0.125
- Activity [23]: 15.47%
- inhibition at 10 µM [24]: 65%
- cytotoxicity at 24 h, 20 µM [25]: < 10%
- MIC [26]: 8 µM
- MIC [27]: 4 µM
- MIC [28]: 64 µM
- MIC [29]: 128 µM
- Activity [30]: inactive
- MIC [31]: 2 µM
- selectivity ratio [32]: 853
- MIC [33]: 6 µM
- MIC [34]: 2 µM
- inhibition at 5 µM [35]: 91.6%
- MIC [36]: 8 µM
- MIC [37]: 2 µM

Substance: H-LIKKIYRKWKRW-NH2
- Retention_time [1]: 16.2 min
- MIC [2]: 4 µM
- Activity [3]: Non-Toxic
- Activity [4]: <2 log10CFU/ml
- selectivity ratio [5]: 71.1
- Drug uptake [6]: Active
- Activity [38]: 68%
- MIC [8]: 32 µM
- cytotoxicity at 24 h, 20 µM [9]: < 10%
- MIC [10]: 8 µM
- MIC [11]: 8 µM
- MIC [12]: 8 µM
- MIC [13]: 128 µM
- MIC [14]: 64 µM
- fractional inhibitory concentration index (FICI) [15]: 0.313
- inhibition [16]: Active
- Activity [17]: inactive
- MIC [18]: 7.1 µM
- MIC [19]: 4 µM
- MIC [20]: 8 µM
- inhibition [21]: Active
- FIC [22]: 0.0625
- Activity [23]: 24.41%
- inhibition at 10 µM [24]: 47.3%
- cytotoxicity at 24 h, 20 µM [25]: < 10%
- MIC [26]: 8 µM
- MIC [27]: 8 µM
- MIC [28]: 64 µM
- MIC [29]: 64 µM
- Activity [30]: inactive
- MIC [31]: 2 µM
- selectivity ratio [32]: 853
- MIC [33]: 6 µM
- MIC [34]: 2 µM
- inhibition at 5 µM [35]: 51.4%
- MIC [36]: 8 µM
- MIC [37]: 2 µM
